Experimental findings from doi:10.1101/2025.10.23.684218v2, “Development of a dual chemical probe for the USP16 and HDAC6 zinc-finger ubiquitin-binding domain” (biorxiv, 2025) are described below.

Like-named read-outs stand apart in the source and are kept apart here. Where only a bound is given, the exact number is not on record here.

Holding throughout (experiment): biochemical
What all share (parameters): SPR, steady-state binding to immobilised biotinylated UBD proteins

In one experiment the target is T1, USP49 (Homo sapiens, UniProt Q70CQ1).
T1 construct: UBD, residues 1-115
T1 sequence (Q70CQ1 1-688): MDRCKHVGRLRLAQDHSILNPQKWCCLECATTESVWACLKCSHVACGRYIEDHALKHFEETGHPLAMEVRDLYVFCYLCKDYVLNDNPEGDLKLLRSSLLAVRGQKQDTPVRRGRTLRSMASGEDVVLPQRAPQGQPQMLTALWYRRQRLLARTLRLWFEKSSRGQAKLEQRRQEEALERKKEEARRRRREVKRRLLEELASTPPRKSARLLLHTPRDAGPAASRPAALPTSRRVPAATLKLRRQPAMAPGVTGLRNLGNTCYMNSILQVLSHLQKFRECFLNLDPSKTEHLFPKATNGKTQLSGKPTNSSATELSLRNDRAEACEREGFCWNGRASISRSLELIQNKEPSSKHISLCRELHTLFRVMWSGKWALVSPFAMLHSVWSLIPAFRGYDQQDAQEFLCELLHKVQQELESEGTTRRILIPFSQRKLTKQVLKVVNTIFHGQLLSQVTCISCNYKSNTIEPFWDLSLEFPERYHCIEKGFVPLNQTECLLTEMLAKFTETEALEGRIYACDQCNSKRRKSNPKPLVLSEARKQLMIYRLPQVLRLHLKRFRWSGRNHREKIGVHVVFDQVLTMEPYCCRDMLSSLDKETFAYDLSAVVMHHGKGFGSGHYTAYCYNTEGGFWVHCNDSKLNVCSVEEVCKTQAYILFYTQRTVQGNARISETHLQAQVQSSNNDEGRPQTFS

The target in a further experiment is T2, BRAP (Homo sapiens, UniProt Q7Z569).
T2 construct: UBD, residues 304-390
T2 sequence (Q7Z569 1-592): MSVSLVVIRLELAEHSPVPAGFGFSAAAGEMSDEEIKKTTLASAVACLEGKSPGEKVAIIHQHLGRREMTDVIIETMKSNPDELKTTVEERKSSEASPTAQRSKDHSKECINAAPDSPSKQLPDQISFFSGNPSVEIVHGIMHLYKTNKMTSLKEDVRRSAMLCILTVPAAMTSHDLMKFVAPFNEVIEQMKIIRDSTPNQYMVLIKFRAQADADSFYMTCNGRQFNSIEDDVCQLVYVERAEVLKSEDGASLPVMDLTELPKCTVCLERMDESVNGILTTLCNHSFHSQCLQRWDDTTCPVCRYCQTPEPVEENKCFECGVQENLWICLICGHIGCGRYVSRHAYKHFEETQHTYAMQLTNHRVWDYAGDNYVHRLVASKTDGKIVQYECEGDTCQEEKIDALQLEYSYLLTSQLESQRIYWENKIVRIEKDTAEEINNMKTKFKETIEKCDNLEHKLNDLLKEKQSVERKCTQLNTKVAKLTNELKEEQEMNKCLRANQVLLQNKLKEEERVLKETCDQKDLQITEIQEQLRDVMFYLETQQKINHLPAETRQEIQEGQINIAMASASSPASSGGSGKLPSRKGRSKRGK

The target of the next experiment is T3, USP5 (Homo sapiens, UniProt P45974).
T3 construct: UBD, residues 171-290
T3 sequence (P45974 1-858): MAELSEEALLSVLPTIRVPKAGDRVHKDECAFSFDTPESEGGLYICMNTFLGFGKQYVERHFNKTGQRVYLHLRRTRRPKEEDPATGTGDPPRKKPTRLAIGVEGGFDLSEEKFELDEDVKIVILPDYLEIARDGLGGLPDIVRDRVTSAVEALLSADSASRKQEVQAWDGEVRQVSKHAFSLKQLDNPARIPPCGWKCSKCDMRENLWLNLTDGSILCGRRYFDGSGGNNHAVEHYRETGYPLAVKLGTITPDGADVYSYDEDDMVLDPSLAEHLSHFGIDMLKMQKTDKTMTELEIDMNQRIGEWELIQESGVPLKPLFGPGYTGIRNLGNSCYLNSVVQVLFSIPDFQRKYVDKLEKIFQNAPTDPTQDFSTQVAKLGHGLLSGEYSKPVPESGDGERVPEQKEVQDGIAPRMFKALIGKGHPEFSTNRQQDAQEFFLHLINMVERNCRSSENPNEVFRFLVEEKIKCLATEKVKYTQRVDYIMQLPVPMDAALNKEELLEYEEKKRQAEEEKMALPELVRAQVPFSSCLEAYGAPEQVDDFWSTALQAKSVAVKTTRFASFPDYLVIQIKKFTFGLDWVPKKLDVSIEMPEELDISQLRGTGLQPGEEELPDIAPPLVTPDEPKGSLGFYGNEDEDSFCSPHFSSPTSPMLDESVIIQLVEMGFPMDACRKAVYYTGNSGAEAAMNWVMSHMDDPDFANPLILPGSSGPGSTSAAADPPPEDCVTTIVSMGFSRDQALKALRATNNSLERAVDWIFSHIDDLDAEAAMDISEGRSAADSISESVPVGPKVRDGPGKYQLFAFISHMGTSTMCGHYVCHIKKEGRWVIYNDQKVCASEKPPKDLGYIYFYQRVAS

The mark [1] stands for this setting: read-out: Probe KD (nM) SGC-UBD1031.
[2] abbreviates: read-out: Negative Control KD (nM) SGC-UBD1031N.

Regarding `C[C@H](NC(=O)Cn1c(CCC(=O)O)nc2c(Cl)cccc2c1=O)c1c(F)cccc1F` [compound 15, (S)-3-(8-chloro-3-(2-((1-(2,6-difluorophenyl)ethyl)amino)-2-oxoethyl)-4-oxo-3,4-dihydroquinazolin-2-yl)propanoic acid], the dissociation constant Kd on USP49 (setting [1]) was 7500 ± 870 nM; on BRAP (setting [1]) it was more than 10000 nM; at USP5 (setting [1]), 2600 ± 1400 nM.

For the molecule `C[C@@H](NC(=O)Cn1c(CCC(=O)O)nc2c(Cl)cccc2c1=O)c1c(F)cccc1F` [compound 16, (R)-3-(8-chloro-3-(2-((1-(2,6-difluorophenyl)ethyl)amino)-2-oxoethyl)-4-oxo-3,4-dihydroquinazolin-2-yl)propanoic acid], the equilibrium dissociation constant (Kd) was 6700 ± 2100 nM at USP49 (setting [2]), more than 10000 nM on BRAP (setting [2]) and more than 10000 nM on USP5 (setting [2]).

Broadly, the Kd is the concentration at which binding is half-saturated.
